Values of other authors in patent publication US20230393151A1, “Precision Targeted Retromer Therapeutics for the Treatment of Neurodegenerative Diseases and Disorders” (The Trustees of Columbia University in the City of New York, priority 2020, published 2023).

Experiments:
[1] = biological target: purified, reconstituted heterotrimeric complex (retromer) (Homo sapiens, UniProt Q96QK1+Q9UBQ0); conditions: incubated with complex at various concentrations; Mecozzi et al. 2014
[2] = biological target: T1, VPS35 and VPS26 (Mus musculus, UniProt Q9EQH3+Q9QZ88); conditions: cultured primary neurons; Mecozzi et al. 2014
T1 construct: endogenous in cells

Compound: [H]/N=C(\N)SCc1ccc(CS/C(N)=N/[H])s1 [R55]
- Thermal stability of retromer complex [1]: improved thermal stability significantly
- VPS35 and VPS26 protein levels [2]: increased
